Experimental findings from the NIST ThermoML archive (doi:10.1021/acs.jced.9b00362) are described below.

Numbers after ± are expanded uncertainties.

For data set [1] the following is noted: Crystal; DSC.
The nature of data set [2]: Molar enthalpy of transition or fusion. The conditions noted are these: Crystal; DSC.

Regarding `O=P(O)(O)c1ccccc1` [phenylphosphonic acid], the Triple point temperature in data set [1] came to 437.53 ± 0.93 K. Moreover, in data set [2], the “Molar enthalpy of transition or fusion” value is 23.9 ± 2.1 kJ/mol.
